From PMC7320011, “Rationally designed ruthenium complexes for 1- and 2-photon photodynamic therapy” (Nature Communications, 2020)
Where two headings read alike, the source gives them in different places.

How the values were obtained:
[1] = parameters: method as in earlier work; conditions: acetonitrile; cited from earlier work
[2] = test system: mouse colon carcinoma (CT-26) cells
Procedure: (§1) A total of 4 × 10^3 cells were seeded on 96-well plates and allowed to adhere overnight. The cells were treated with increasing concentrations of the sample diluted in cell media achieving a total volume of 200 μL. The cells were incubated with the sample for 8 h and, after this time, the medium refreshed. To study the phototoxic effect of the sample, the cells were exposed to 480 nm (spectral half-width: 20 nm, 10 min, 5.2 mW cm^−2, 3.1 J cm^−2) or 540 nm (spectral half-width: 30 nm, 40 min, 4.0 mW cm^−2, 9.5 J cm^−2) light using an Atlas Photonics LUMOS BIO irradiator. To study the dark cytotoxicity of the sample, the cells were not irradiated and the medium exchanged. The cells were grown for an additional 40 h at 37 °C. After this time, the medium was replaced with fresh medium containing resazurin with a final concentration of 0.2 mg mL^−1. The cells were incubated for 4 h and the amount of the fluorescent product resorufin determined (λex = 540 nm, λem = 590 nm) with a SpectraMax M2 Microplate Reader (Molecular Devices). The obtained data was analyzed with the GraphPad Prism software.

[3] = test system: noncancerous retinal pigment epithelium (RPE-1) cells; test: (Photo-)cytotoxicity on 2D cell monolayers, RPE-1
Procedure: as §1

[4] = test system: human cervical carcinoma (HeLa) cells; test: (Photo-)cytotoxicity on 2D cell monolayers, HeLa; assay type: cell-based; conditions: for IC50: 1-3 as chloride salts
Procedure: as §1

[5] = test system: human glioblastoma astrocytoma (U373) cells;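 note: Resazurin-to-resorufin fluorescence viability readout, 8 h compound exposure then medium change, light dose 3.1 J cm^−2 at 480 nm or 9.5 J cm^−2 at 540 nm, analysed 40 h later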
Procedure: as §1

[6] = test system: mouse colon carcinoma (CT-26) cells; test: (Photo-)cytotoxicity on 2D cell monolayers, CT-26
Procedure: as §1

[7] = test system: human glioblastoma astrocytoma (U373) cells; test: (Photo-)cytotoxicity on 2D cell monolayers, U373;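 note: Resazurin-to-resorufin fluorescence viability readout, 8 h compound exposure then medium change, light dose 3.1 J cm^−2 at 480 nm or 9.5 J cm^−2 at 540 nm, analysed 40 h later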
Procedure: as §1

[8] = Photostability (absorption spectra upon irradiation); assay type: physicochemical; conditions: 450 nm, 0 to 10 min (13.2 J cm^−2), air-saturated acetonitrile
Procedure: The sample was prepared in an air-saturated acetonitrile solution. Using a Atlas Photonics LUMOS BIO irradiator, the sample was constantly irradiated at 450 nm in time intervals from 0 to 10 min (13.2 J cm^−2). The absorption spectra from 350 to 700 nm was monitored with a SpectraMax M2 Microplate Reader (Molecular Devices) at each time interval. As positive and negative controls, respectively, [Ru(2,2′-bipyridine)3]Cl2 and Protoporphyrin IX were used.

[9] = test system: noncancerous retinal pigment epithelium (RPE-1) cells
Procedure: as §1

[10] = parameters: method as in PMID 10907495; conditions: cited from earlier work
HeLa MCTS [11] = test: 3D MCTS growth inhibition assay; assay type: cell-based, human; conditions: dark; 1–7 and H2TPP 20 μM, cisplatin 10 μM and 30 μM
Procedure: MCTS were treated with the sample (20 μM 1–7, 20 μM tetraphenylporphyrin H2TPP, 10 μM cisplatin, 30 μM cisplatin, 2% DMSO, v%) by replacing 50% of the media with drug supplemented media in the dark for 3 days. After this time, the MCTS were exposed to a 1-Photon (500 nm, 16.7 min, 10.0 mW cm^−2, and 10 J cm^−2) irradiation using a LED light source or 2-Photon (800 nm, 10 J cm^−2 with a section interval of 5 μm) irradiation using a LSM 880 (Carl Zeiss) laser scanning confocal microscope equipped with a Coherent Chameleon 2-Photon laser. The cell culture media was replaced every 2 days. The integrity and diameter of the MCTs was monitored with an Axio Observer Z1 (Carl Zeiss) phase contrast microscope every 24 h.

HeLa MCTS [12] = test: (Photo-)cytotoxicity on 3D MCTS (ATP concentration); assay type: cell-based, human; conditions: 1-3 as chloride salts
Procedure: The cytotoxicity of the compounds in 3D MCTS was assessed by measurement of the ATP concentration. MCTS were treated with increasing concentrations of the compound (2% DMSO, v%) by replacing 50% of the media with drug supplemented media and incubation for 12 h. After this time, the MCTS were divided in three identical groups. The first group was strictly kept in the dark. The second group was exposed to a 1-Photon irradiation (500 nm, 16.7 min, 10.0 mW cm^−2, and 10 J cm^−2) using a LED light source and the third group was exposed to a 2-Photon irradiation (800 nm, 10 J cm^−2 with a section interval of 5 μm) using a LSM 880 (Carl Zeiss, Germany) laser scanning confocal microscope equipped with a Coherent Chameleon 2-Photon laser. After the irradiation, all groups were incubated additional 48 h. The ATP concertation was measured using a CellTiter-Glo 3D Cell Viability kit (Promega) by measuring the generated chemiluminescence with an infinite M200 PRO (Tecan) plate reader.

[13] = Homo sapiens, dark, read-out: IC50 dark

In the case of `[Cl-].[Cl-].[Ru+2].c1ccc(-c2ccccn2)nc1.c1ccc(-c2ccccn2)nc1.c1ccc(-c2ccccn2)nc1` [[Ru(2,2′-bipyridine)3]Cl2], the “Φem, luminescence quantum yield of the reference” value [1] is given as 5.9%.

With `C=CC1=C(C)c2cc3[nH]c(cc4nc(cc5[nH]c(cc1n2)c(C)c5CCC(=O)O)C(CCC(=O)O)=C4C)c(C)c3C=C` [PpIX, Protoporphyrin IX, reference compound] the IC50 [2] was 3.5 µM, the IC50 ([3]; Homo sapiens, RPE-1, 40 min, read-out: IC50 540 nm (40 min, 9.5 J cm-2)) was 3.3 µM and the IC50 ([3]; Homo sapiens, RPE-1, read-out: IC50 dark) was over 100 µM. For the same compound, the “PI (480 nm)” value ([3]; RPE-1, dark vs 480 nm) was over 26.3, the “PI (540 nm)” value ([3]; RPE-1, dark vs 540 nm) was over 30.3 and the IC50 ([4]; Homo sapiens, 10 min, 480 nm, read-out: IC50 480 nm (10 min, 3.1 J cm-2)) was 2.5 µM. For the same compound, the IC50 ([4]; Homo sapiens, 40 min, 540 nm, read-out: IC50 540 nm (40 min, 9.5 J cm-2)) was 2.1 µM, the IC50 [4, 13] was over 100 µM and the “PI (480 nm)” value ([4]; dark vs 480 nm) was over 40.0. For the same compound, the “PI (540 nm)” value ([4]; dark vs 540 nm) was over 47.6, the IC50 [5] was 3.6 µM and the “PI (480 nm)” value ([6]; CT-26, dark vs 480 nm) was over 28.6. The “PI (540 nm)” value ([6]; CT-26, dark vs 540 nm) was over 24.4, the IC50 ([6]; Mus musculus, CT26, 40 min, read-out: IC50 540 nm (40 min, 9.5 J cm-2)) was 4.1 µM and the IC50 ([6]; Mus musculus, CT26, read-out: IC50 dark) was over 100 µM. The IC50 ([7]; Homo sapiens, U373 MG, 10 min, read-out: IC50 480 nm (10 min, 3.1 J cm-2)) was 3.3 µM, the IC50 ([7]; Homo sapiens, U373 MG, read-out: IC50 dark) was over 100 µM and the “PI (480 nm)” value ([7]; U373, dark vs 480 nm) was over 30.3. The “PI (540 nm)” value ([7]; U373, dark vs 540 nm) was over 27.8, the “photostability (change of absorption spectra upon irradiation)” value [8] was “drastically changed” and the IC50 [9] was 3.8 µM.

In the case of `O=C([O-])c1c(Cl)c(Cl)c(Cl)c(Cl)c1-c1c2cc(I)c(=O)c(I)c-2oc2c(I)c([O-])c(I)cc12.[Na+].[Na+]` [Rose Bengal], the “Φ, singlet oxygen quantum yield of the reference” value [10] is listed as 76%.

For `C1=Cc2nc1c(-c1ccccc1)c1nc(c(-c3ccccc3)c3ccc([nH]3)c(-c3ccccc3)c3ccc([nH]3)c2-c2ccccc2)C=C1` [H2TPP, tetraphenylporphyrin, reference compound], the “tumor growth inhibition effect (MCTS volume)” value (HeLa MCTS [11]) was “do not show any inhibitory effect”, the IC50 (HeLa MCTS [12]; [13]) was over 100 µM and the IC50 (HeLa MCTS [12]; Homo sapiens, light or radiation study, 1P 500 nm, read-out: IC50 1P irradiation (500 nm, 10 J cm-2)) was over 100 µM. For the same compound, the IC50 (HeLa MCTS [12]; Homo sapiens, light or radiation study, 2P 800 nm, section interval 5 μm, read-out: IC50 2P irradiation (800 nm, 10 J cm-2)) was over 100 µM.

For `N.N.[Cl][Pt][Cl]` [cisplatin, reference compound], the IC50 ([3]; read-out: IC50 dark, RPE-1, dark, 1-3 as chloride salts) was 29.3 µM, the IC50 ([4]; dark, read-out: IC50 dark) was 10.5 µM and the IC50 ([6]; read-out: IC50 dark, CT-26, dark, 1-3 as chloride salts) was 6.5 µM. The IC50 ([7]; read-out: IC50 dark, U373, dark, 1-3 as chloride salts) was 17.6 µM, the “tumor growth inhibition effect (MCTS volume)” value (HeLa MCTS [11]) was “weak effect on the tumor growth” and the IC50 (HeLa MCTS [12]; dark, read-out: IC50 dark) was 18.6 ± 1.3 µM.
